Assay results reported in patent US20100324152A1, “USE OF 1,2-DECANEDIOL FOR SEBUM REDUCTION AND COSMETIC AND/OR DERMATOLOGICAL FORMULATIONS COMPRISING 1,2-DECANEDIOL” (priority 2006, published 2010).

How the values were obtained:
[1] = Dropping point of a model sebum containing 1,2-decanediol (AOCS Cc 18-80/ASTM D 3954); assay type: physicochemical; settings: addition of 20 wt. % 1,2-decanediol to model sebum, versus 1,2-decanediol-free model sebum
Source text: To check the extent to which 1,2-decanediol has a sebum-fluidizing property and is therefore capable of reducing the sebum concentration on the skin surface, and in particular in the sebaceous gland follicles, by a physical route, the influence of 1,2-decanediol on the dropping point of a model sebum was first investigated. On the basis of these publications, a model […] was developed which substantially comprises saturated and unsaturated free fatty acids, wax-like substances, triglycerides and cholesterol and, in detail, is composed of the following substances: palmitic acid, oleic acid, stearic acid, squalene, myristyl myristate, cetyl palmitate, tripalmitin, triolein and cholesterol. The exact quantitative composition of the model sebum (contents of the individual substances in per cent by weight; wt. %) can be seen from the following Table 1. [table] To investigate the influence of 1,2-decanediol on the physical properties of the model sebum, 20 wt. % 1,2-decanediol was added to the model sebum. The dropping points of the 1,2-decanediol-free model sebum and the model sebum sample containing 20 wt. % 1,2-decanediol were then determined using the method for dropping point determination according to AOCS Cc 18-80/ASTM D 3954.

P. acnes = settings: reported in EP 1 598 064 A1; cited from earlier work

- reduction of the dropping point of model sebum [1]: 12.7 °C
Structure (SMILES): CCCCCCCCC(O)CO (centres unmarked) [1,2-decanediol]
- antibacterial action in the suspension test (P. acnes): as good as no antibacterial action
